Assay results from patent US10383859B2, “Benzo[d]thiazole derivative or salt thereof, and pharmaceutical composition including same” (Yuhan Corporation, priority 2016, dated 2019).

Tested on: A549 cells
Assay: Cell migration assay (24-well transwell, laminin)
Type: cell-based, human
Conditions: Homo sapiens, A549, 6 h, laminin 10 μg/mL in lower well, test compounds 0.39˜100 μM, migrated cells counted, read-out: Inhibitory activity against cell migration
Method: Cell migration was measured with a 24-well transwell having a polycarbonate membrane (8.0 μm pore size, Costar) at the bottom of the upper chamber. Each lower well was treated with laminin (10 μg/mL) and test compounds in predetermined concentrations (0.39˜100 μM) along with a serum-free RPMI1640 medium. A549 cells (Korean Cell Line Bank) were suspended in a serum-free RPMI1640 medium at a concentration of 1×10^6 cells/mL and then the test compounds were added thereto at the indicated concentrations. Each resulting solution (100 μL) was added to the upper chamber. The cells were cultured at 37° C. for 6 hours in a CO2 incubator. The upper chamber was taken out and then the cells were fixed with PBS containing 70% methyl alcohol for 10 minutes, followed by washing with PBS twice. The cells were stained with hematoxylin (Sigma) for 10 minutes and then washed with distilled water. The non-migrated cells were removed from the upper portion of the polycarbonate membrane with a cotton swab. The membranes were excised and separated from the chamber, and then mounted to a slide using a gel mount reagent (Biomeda, USA). The migrated cells (attached to the lower face of the membrane) were counted at three randomly selected sites under a microscope (×20). The cell counting was performed with the Image J program. From the counted cell numbers, each IC50 value was calculated by non-linear regression curve fit using the “GraphPad Prism” program.
The cells are pulled by laminin residing in the lower chamber and then passed through the polycarbonate membrane, so as to attach to the lower face of the membrane.

| Structure (SMILES) | IC50 [µM] |
| --- | --- |
| COc1ccc(CCN(Cc2ccc(C(=O)O)cc2)c2nc3cccc(F)c3s2)cc1Br [Example 37, 4-({[2-(3-bromo-4-methoxyphenyl)ethyl](7-fluorobenzo[d]thiazol-2-yl)amino}methyl)benzoic acid] | > 10 |
| COc1ccc(CCN(c2nc3ccc(Br)cc3s2)C(C)c2ccc(C(=O)O)cc2)cc1 (centres unmarked) [Example 116, 4-(1-{(6-bromo-benzo[d]thiazol-2-yl)[2-(4-methoxyphenyl)ethyl]amino}ethyl)benzoic acid] | > 10 |
| COc1ccc(CCN(Cc2ccc(C(=O)O)cc2)c2nc3ccc(C(F)(F)F)c(F)c3s2)cc1 [Example 121, 4-({[7-fluoro-6-(trifluoromethyl)benzo[d]thiazol-2-yl][2-(4-methoxyphenyl)ethyl]amino}methyl)benzoic acid] | > 10 |
| COc1ccc(CCN(c2nc3c(F)cc(F)cc3s2)C(C)c2ccc(C(=O)O)cc2)cc1 (centres unmarked) [Example 114, 4-(1-{(4,6-difluorobenzo[d]thiazol-2-yl)[2-(4-methoxyphenyl)ethyl]amino}ethyl)benzoic acid] | > 10 |
| CCC(c1ccc(C(=O)O)cc1)N(CCc1ccc(OC)c(C)c1C)c1nc2cccc(F)c2s1 (centres unmarked) [Example 71, 4-(1-{(7-fluorobenzo[d]thiazol-2-yl)[2-(4-methoxy-2,3-dimethylphenyl)ethyl]amino}propyl)benzoic acid] | > 10 |
| O=C(O)c1ccc(CN(CCc2cc(F)c(F)c(F)c2)c2nc3cccc(F)c3s2)cc1 [Example 36, 4-({(7-fluorobenzo[d]thiazol-2-yl)[2-(3,4,5-trifluorophenyl)ethyl]amino}methyl)benzoic acid] | > 10 |
| O=C(O)c1ccc(CN(CCc2ccc(F)cc2F)c2nc3cccc(F)c3s2)cc1 [Example 39, 4-({[2-(2,4-difluorophenyl)ethyl](7-fluorobenzo[d]thiazol-2-yl)amino}methyl)benzoic acid] | > 10 |
| COc1ccc(CCN(c2nc3cc(Br)ccc3s2)C(C)c2ccc(C(=O)O)cc2)cc1 (centres unmarked) [Example 103, 4-(1-{(5-bromo-benzo[d]thiazol-2-yl)[2-(4-methoxyphenyl)ethyl]amino}ethyl)benzoic acid] | > 10 |
| O=C(O)c1ccc(CN(CCc2ccc(F)cc2)c2nc3cccc(F)c3s2)cc1 [Example 8, 4-({(7-fluorobenzo[d]thiazol-2-yl)[2-(4-fluorophenyl)ethyl]amino}methyl)benzoic acid] | > 10 |
| O=C(O)c1ccc(CN(CCc2cccc(F)c2F)c2nc3cccc(F)c3s2)cc1 [Example 34, 4-({[2-(2,3-difluorophenyl)ethyl](7-fluorobenzo[d]thiazol-2-yl)amino}methyl)benzoic acid] | > 10 |
| CCC(c1ccc(C(=O)O)cc1)N(CCc1c(F)cc(OC)cc1F)c1nc2cccc(F)c2s1 (centres unmarked) [Example 75, 4-(1-{[2-(2,6-difluoro-4-methoxyphenyl)ethyl](7-fluorobenzo[d]thiazol-2-yl)amino}propyl)benzoic acid] | > 10 |
| COc1ccc(CCN(c2nc3cc(Cl)ccc3s2)C(C)c2ccc(C(=O)O)cc2)cc1 (centres unmarked) [Example 107, 4-(1-{(5-chloro-benzo[d]thiazol-2-yl)[2-(4-methoxyphenyl)ethyl]amino}ethyl)benzoic acid] | > 10 |
| Cc1cccc(CCN(Cc2ccc(C(=O)O)cc2)c2nc3cccc(F)c3s2)c1 [Example 17, 4-({(7-fluorobenzo[d]thiazol-2-yl)[2-(3-methylphenyl)ethyl]amino}methyl)benzoic acid] | > 10 |
| COc1cc(C)c(CCN(Cc2ccc(C(=O)O)cc2)c2nc3cccc(F)c3s2)cc1C(C)C [Example 44, 4-{[(7-fluorobenzo[d]thiazol-2-yl){2-[4-methoxy-2-methyl-5-(propan-2-yl)phenyl]ethyl}amino]methyl}benzoic acid] | > 10 |
| COc1ccc(CCN(Cc2ccc(C(=O)O)cc2)c2nc3ccc(C(=O)O)cc3s2)cc1 [Example 117, 2-{(4-carboxybenzyl)[2-(4-methoxyphenyl)ethyl]amino}benzo[d]thiazole-6-carboxylic acid] | > 10 |
| COc1ccc(CCN(Cc2ccc(C(=O)O)cc2)c2nc3cccc(F)c3s2)c(C)c1C [Example 47, 4-({(7-fluorobenzo[d]thiazol-2-yl)[2-(4-methoxy-2,3-dimethylphenyl)ethyl]amino}methyl)benzoic acid] | > 10 |
| CCC(C)Oc1ccc(CCN(Cc2ccc(C(=O)O)cc2)c2nc3cccc(F)c3s2)cc1 (centres unmarked) [Example 30, 4-{[[2-(4-sec-butoxyphenyl)ethyl](7-fluorobenzo[d]thiazol-2-yl)amino]methyl}benzoic acid] | > 10 |
| CC(C)COc1ccc(CCN(Cc2ccc(C(=O)O)cc2)c2nc3cccc(F)c3s2)cc1 [Example 18, 4-({(7-fluorobenzo[d]thiazol-2-yl)[2-(4-isobutoxyphenyl)ethyl]amino}methyl)benzoic acid] | 1 to 10 |
| COc1ccc(CCN(c2nc3cccc(F)c3s2)C(C)c2ccc(C(=O)O)cc2)cc1Br (centres unmarked) [Example 55, 4-(1-{[2-(3-bromo-4-methoxyphenyl)ethyl](7-fluorobenzo[d]thiazol-2-yl)amino}ethyl)benzoic acid] | > 10 |
| O=C(O)c1ccc(CN(CCc2ccc(Cl)cc2)c2nc3cccc(F)c3s2)cc1 [Example 4, 4-{[[2-(4-chlorophenyl)ethyl](7-fluorobenzo[d]thiazol-2-yl)amino]methyl}benzoic acid] | 1 to 10 |

Second part, the compound after the results:

| IC50 [µM] | Structure (SMILES) |
| --- | --- |
| < 1 | COc1ccc(CCN(Cc2ccc(C(=O)O)cc2)c2nc3cc(Br)ccc3s2)cc1 [Example 91, 4-({(5-bromo-benzo[d]thiazol-2-yl)[2-(4-methoxyphenyl)ethyl]amino}methyl)benzoic acid] |
| < 1 | COc1ccc(CCN(Cc2ccc(C(=O)O)cc2)c2nc3cccc(F)c3s2)c(F)c1 [Example 26, 4-({(7-fluorobenzo[d]thiazol-2-yl)[2-(2-fluoro-4-methoxyphenyl)ethyl]amino}methyl)benzoic acid] |
| < 1 | COc1ccc(CCN(Cc2ccc(C(=O)O)cc2)c2nc3ccc(F)cc3s2)cc1 [Example 92, 4-({(6-fluorobenzo[d]thiazol-2-yl)[2-(4-methoxyphenyl)ethyl]amino}methyl)benzoic acid] |
| < 1 | COc1cc(F)c(CCN(c2nc3cccc(F)c3s2)C(C)c2ccc(C(=O)O)cc2)cc1F (centres unmarked) [Example 61, 4-(1-{[2-(2,5-difluoro-4-methoxyphenyl)ethyl](7-fluorobenzo[d]thiazol-2-yl)amino}ethyl)benzoic acid] |
| < 1 | O=C(O)c1ccc(CN(CCc2ccccc2Cl)c2nc3cccc(F)c3s2)cc1 [Example 2, 4-(((2-chlorophenylethyl)(7-fluorobenzo[d]thiazol-2-yl)amino)methyl)benzoic acid] |
| 1 to 10 | CC(C)Oc1ccc(CCN(Cc2ccc(C(=O)O)cc2)c2nc3cccc(F)c3s2)cc1 [Example 11, 4-({(7-fluorobenzo[d]thiazol-2-yl)[2-(4-isopropoxyphenyl)ethyl]amino}methyl)benzoic acid] |
| < 1 | COc1ccc(CCN(c2nc3cc(F)cc(F)c3s2)C(C)c2ccc(C(=O)O)cc2)cc1F (centres unmarked) [Example 122, 4-(1-{(5,7-difluorobenzo[d]thiazol-2-yl)[2-(3-fluoro-4-methoxyphenyl)ethyl]amino}ethyl)benzoic acid] |
| < 1 | COc1ccc(CCN(Cc2ccc(C(=O)O)cc2)c2nc3cccc(N)c3s2)cc1 [Example 82, 4-({(7-amino-benzo[d]thiazol-2-yl)[2-(4-methoxyphenyl)ethyl]amino}methyl)benzoic acid] |
| < 1 | COc1ccc(CCN(c2nc3cccc(F)c3s2)C(C)c2ccc(C(=O)O)cc2)c(C)c1C (centres unmarked) [Example 63, 4-(1-{(7-fluorobenzo[d]thiazol-2-yl)[2-(4-methoxy-2,3-dimethylphenyl)ethyl]amino}ethyl)benzoic acid] |
| < 1 | COc1ccc(CCN(Cc2ccc(C(=O)O)cc2)c2nc3cc(F)c(F)cc3s2)cc1 [Example 86, 4-({(5,6-difluorobenzo[d]thiazol-2-yl)[2-(4-methoxyphenyl)ethyl]amino}methyl)benzoic acid] |
| < 1 | COc1ccc(CCN(Cc2ccc(C(=O)O)cc2)c2nc3cc(C(F)(F)F)ccc3s2)cc1 [Example 120, 4-({[2-(4-methoxyphenyl)ethyl][5-(trifluoromethyl)benzo[d]thiazol-2-yl]amino}methyl)benzoic acid] |
| 1 to 10 | O=C(O)c1ccc(CN(CCc2ccccc2)c2nc3cccc(F)c3s2)cc1 [Example 22, 4-{[(7-fluorobenzo[d]thiazol-2-yl)(2-phenylethyl)amino]methyl}benzoic acid] |
| < 1 | COc1ccc(CCN(Cc2ccc(C(=O)O)cc2)c2nc3cccc(C(F)(F)F)c3s2)cc1 [Example 89, 4-{[[2-(4-methoxyphenyl)ethyl](7-trifluoromethyl-benzo[d]thiazol-2-yl)amino]methyl}benzoic acid] |
| < 1 | COc1ccc(CCN(Cc2ccc(C(=O)O)cc2)c2nc3ccc(N)cc3s2)cc1 [Example 81, 4-({(6-amino-benzo[d]thiazol-2-yl)[2-(4-methoxyphenyl)ethyl]amino}methyl)benzoic acid] |
| < 1 | CN(C)c1ccc(CCN(Cc2ccc(C(=O)O)cc2)c2nc3cccc(F)c3s2)cc1 [Example 21, 4-{[{2-[4-(dimethylamino)phenyl]ethyl}(7-fluorobenzo[d]thiazol-2-yl)amino]methyl}benzoic acid] |
